Results published in publication PMC8638962, “Opposing Effects of PhoPQ and PmrAB on the Properties of Salmonella enterica serovar Typhimurium: Implications on Resistance to Antimicrobial Peptides” (Biochemistry, 2021).
In brackets after ≈: the same amount, converted by molar mass. Where a SMILES comes first, the peptide text is derived from it. Where no end group is shown, it is not given here. [ ]: non-standard residue; d: D form. The star is where a group is joined. Octanoyl = CCCCCCCC(=O)*

What was measured:
[1] = tested on: S. enterica serovar Typhimurium 14 028s phoP knockout; type: cell-based; details: broth microdilution, serial twofold dilution in MNMM, 18–20 h at 37 °C with agitation, read by visible turbidity
Experimental: (§1) The antimicrobial activity of the peptides was examined in sterile 96-wells plates (Nunc F96 microtiter plates) in a final volume of 100 μL as follows. Aliquots (50 μL) of an overnight suspension-containing bacteria (late-log phase diluted 1:5000) were added to 50 μL of modified N-minimal media (MNMM) containing the peptides in a serial twofold dilution, and antibiotics, if required, to select for the specific mutant. Inhibition of growth was determined by the visibility of turbidity in comparison to blank with no growth after an incubation of 18–20 h at 37 °C with agitation. Antibacterial activity was expressed as the minimal inhibitory concentration (MIC) in which no growth could be observed.
(§2) We investigated both natural and de novo-designed AMPs (Table 1). The list includes (i) the human cathelicidin LL-37, (ii) a de novo-designed 15-mer AMP designated K6L9 and (iii) its D,L-amino acid-containing analogue, D,L-K6L9, and (iv) D,L amino acid histidine derivative, D,L-H6L9, (v) a 12-mer D,L-K5L7 and (vi) its caprylic-acid-conjugated analogue C8-D,L-K5L7, and (vii) the frog antimicrobial peptide Temporin L.[23] These peptides have different net positive charges under the experimental conditions, as well as hydrophobicity (represented by RP-HPLC retention times), as indicated in Table 1. The peptides were tested for their antibacterial activity against WT S. enterica serovar Typhimurium ATCC 14028 (S. typhimurium) and its mutants (Table 2). The minimal inhibitory concentration (MIC) was defined using a broth microdilution antimicrobial assay. S. typhimurium have been widely used for the exploration of bacterial resistance acquired from these two TCSs.[52],[53]

[2] = tested on: S. enterica serovar Typhimurium 14 028s phoP and PmrAB knockout; type: cell-based; details: broth microdilution, serial twofold dilution in MNMM, 18–20 h at 37 °C with agitation, read by visible turbidity; phoP and PmrAB double knockout
Experimental: as §1, §2

[3] = tested on: S. enterica serovar Typhimurium 14 028s wild-type; type: cell-based; details: broth microdilution, serial twofold dilution in modified N-minimal media (MNMM), 18–20 h at 37 °C with agitation, read by visible turbidity; WT ATCC 14028
Experimental: as §1, §2

[4] = tested on: S. enterica serovar Typhimurium 14 028s PmrAB knockout; type: cell-based; details: broth microdilution, serial twofold dilution in MNMM, 18–20 h at 37 °C with agitation, read by visible turbidity
Experimental: as §1, §2

[5] = RP-HPLC retention as measure of hydrophobicity; type: physicochemical; details: C18 column, linear gradient 10–90% acetonitrile in water with 0.1% TFA in 40 min, 1.8 mL/min; for retention time: RP-HPLC retention time used as measure of hydrophobicity; for relative hydrophobicity (% ACN): percent of acetonitrile at the retention time, RP-HPLC
Excerpt: The peptides were synthesized by a solid phase method on a rink amide MBHA resin using an ABI 433A automatic peptide synthesizer (Applied Biosystems). The resin-bound peptides (0.1 mequiv each) were cleaved from the resins by trifluoroacetic acid (TFA), washed with dry ether, and extracted with acetonitrile/water (50% v/v). All peptides were amidated at their C terminus. The peptides were further purified by reverse-phase high-pressure liquid chromatography (RP-HPLC) on a C18 reverse-phase Bio-Rad column (250 × 10 mm^2, 300 Å pore size, 5 μm particle size). A linear gradient of 10–90% acetonitrile in water containing 0.1% TFA (v/v) in 40 min was used at a flow rate of 1.8 mL/min. […] Electrospray mass spectroscopy confirmed their identity.[23]
as §2

| Compound | MIC, phoP-KO [1] | MIC, DKO [2] | MIC, WT [3] | MIC, pmrAB-KO [4] | retention time [5] | relative hydrophobicity (% ACN) [5] |
| --- | --- | --- | --- | --- | --- | --- |
| CC(C)C[C@H](NC(=O)[C@H](CCCCN)NC(=O)[C@@H](CC(C)C)NC(=O)[C@@H](CC(C)C)NC(=O)[C@H](CCCCN)NC(=O)[C@@H](N)CCCCN)C(=O)N[C@@H](CC(C)C)C(=O)N[C@H](CC(C)C)C(=O)N[C@@H](CCCCN)C(=O)N[C@H](CC(C)C)C(=O)N[C@@H](CC(C)C)C(=O)N[C@@H](CCCCN)C(N)=O [D,L-K5L7] (H-KK[dL][dL]KLL[dL]K[dL]LK-NH2; N-terminus assumed) | 1.56 µM (≈ 2.26 µg/mL) | 3.125 µM (≈ 4.53 µg/mL) | 6.25 µM (≈ 9.06 µg/mL) | 12.5 µM (≈ 18.1 µg/mL) | 23.5 min | 57 % ACN |
| CC(C)C[C@H](NC(=O)[C@H](CC(C)C)NC(=O)[C@@H](CCCCN)NC(=O)[C@H](CC(C)C)NC(=O)[C@H](CC(C)C)NC(=O)[C@H](CCCCN)NC(=O)[C@@H](CCCCN)NC(=O)[C@@H](CC(C)C)NC(=O)[C@H](CC(C)C)NC(=O)[C@@H](CCCCN)NC(=O)[C@H](CCCCN)NC(=O)[C@H](CC(C)C)NC(=O)[C@@H](CC(C)C)NC(=O)[C@H](CCCCN)NC(=O)[C@@H](N)CC(C)C)C(N)=O [D,L-K6L9] (H-LK[dL]LK[dK]L[dL][dK]KLL[dK]LL-NH2; N-terminus assumed) | 0.39 µM (≈ 0.704 µg/mL) | 0.78 µM (≈ 1.41 µg/mL) | 1.56 µM (≈ 2.82 µg/mL) | 1.56 µM (≈ 2.82 µg/mL) | 27.7 min | 65.4 % ACN |
| LKLLKKLLKKLLKLL-NH2 [L-K6L9] | 0.39 µM | 3.125 µM | 1.56 µM | 3.125 µM | – | – |
| CC(C)C[C@H](NC(=O)[C@H](CC(C)C)NC(=O)[C@@H](Cc1c[nH]cn1)NC(=O)[C@H](CC(C)C)NC(=O)[C@H](CC(C)C)NC(=O)[C@H](Cc1c[nH]cn1)NC(=O)[C@@H](Cc1c[nH]cn1)NC(=O)[C@@H](CC(C)C)NC(=O)[C@H](CC(C)C)NC(=O)[C@@H](Cc1c[nH]cn1)NC(=O)[C@H](Cc1c[nH]cn1)NC(=O)[C@H](CC(C)C)NC(=O)[C@@H](CC(C)C)NC(=O)[C@H](Cc1c[nH]cn1)NC(=O)[C@@H](N)CC(C)C)C(N)=O [D,L-H6L9] (H-LH[dL]LH[dH]L[dL][dH]HLL[dH]LL-NH2; N-terminus assumed) | 50 µM (≈ 92.9 µg/mL) | 50 µM (≈ 92.9 µg/mL) | 100 µM (≈ 186 µg/mL) | 50 µM (≈ 92.9 µg/mL) | 29.3 min | 68.6 % ACN |
| FVQWFSKFLGRIL-NH2 [Temporin L, reference compound] | 12.5 µM | 25 µM | 25 µM | 25 µM | – | – |
| CC[C@H](C)[C@H](NC(=O)[C@H](CCCCN)NC(=O)[C@H](CCC(=O)O)NC(=O)[C@H](CCCCN)NC(=O)[C@H](CO)NC(=O)[C@H](CCCCN)NC(=O)[C@H](CCCNC(=N)N)NC(=O)[C@H](Cc1ccccc1)NC(=O)[C@H](Cc1ccccc1)NC(=O)[C@H](CC(=O)O)NC(=O)CNC(=O)[C@H](CC(C)C)NC(=O)[C@@H](N)CC(C)C)C(=O)NCC(=O)N[C@@H](CCCCN)C(=O)N[C@@H](CCC(=O)O)C(=O)N[C@@H](Cc1ccccc1)C(=O)N[C@@H](CCCCN)C(=O)N[C@@H](CCCNC(=N)N)C(=O)N[C@H](C(=O)N[C@H](C(=O)N[C@@H](CCC(N)=O)C(=O)N[C@@H](CCCNC(=N)N)C(=O)N[C@H](C(=O)N[C@@H](CCCCN)C(=O)N[C@@H](CC(=O)O)C(=O)N[C@@H](Cc1ccccc1)C(=O)N[C@@H](CC(C)C)C(=O)N[C@@H](CCCNC(=N)N)C(=O)N[C@@H](CC(N)=O)C(=O)N[C@@H](CC(C)C)C(=O)N[C@H](C(=O)N1CCC[C@H]1C(=O)N[C@@H](CCCNC(=N)N)C(=O)N[C@H](C(=O)N[C@@H](CCC(=O)O)C(=O)N[C@@H](CO)C(N)=O)[C@@H](C)O)C(C)C)[C@@H](C)CC)C(C)C)[C@@H](C)CC [LL-37, reference compound] | 1.56 µM (≈ 7.01 µg/mL) | 3.125 µM (≈ 14 µg/mL) | 3.125 µM (≈ 14 µg/mL) | 6.25 µM (≈ 28.1 µg/mL) | – | – |
| CCCCCCCC(=O)N[C@@H](CCCCN)C(=O)N[C@@H](CCCCN)C(=O)N[C@H](CC(C)C)C(=O)N[C@H](CC(C)C)C(=O)N[C@@H](CCCCN)C(=O)N[C@@H](CC(C)C)C(=O)N[C@@H](CC(C)C)C(=O)N[C@H](CC(C)C)C(=O)N[C@@H](CCCCN)C(=O)N[C@H](CC(C)C)C(=O)N[C@@H](CC(C)C)C(=O)N[C@@H](CCCCN)C(N)=O [C8-D,L-K5L7] (Octanoyl-KK[dL][dL]KLL[dL]K[dL]LK-NH2) | 3.125 µM (≈ 4.93 µg/mL) | 3.125 µM (≈ 4.93 µg/mL) | 3.125 µM (≈ 4.93 µg/mL) | 6.25 µM (≈ 9.85 µg/mL) | 29.1 min | 68.2 % ACN |
